Reference: publication PMC8245078, “Development of novel benzofuran-isatin conjugates as potential antiproliferative agents with apoptosis inducing mechanism in Colon cancer” (Journal of Enzyme Inhibition and Medicinal Chemistry, 2021)
Like-named read-outs stand apart in the source and are kept apart here.

Assays:
Assay in all cases: NCI single dose screening (10 µM)
Assay type in all cases: cell-based
[1] = test system: SW-620; conditions: Homo sapiens
[2] = test system: RXF 393; conditions: Homo sapiens
[3] = test system: UO-31; conditions: Homo sapiens
[4] = test system: T-47D; conditions: Homo sapiens, T47D, read-out: GI% (cell growth inhibition percentage)
[5] = test system: LOX IMVI; conditions: Homo sapiens, read-out: GI% (cell growth inhibition percentage)
[6] = test system: ACHN; conditions: Homo sapiens, read-out: GI% (cell growth inhibition percentage)
[7] = test system: NCI-H23; conditions: Homo sapiens
[8] = test system: SN12C; conditions: Homo sapiens, read-out: GI% (cell growth inhibition percentage)
[9] = test system: TK-10; conditions: Homo sapiens
[10] = test system: MCF7; conditions: Homo sapiens
[11] = test system: COLO 205; conditions: Homo sapiens
[12] = test system: SF-539; conditions: Homo sapiens
[13] = test system: OVCAR-5; conditions: Homo sapiens
[14] = test system: MDA-MB-435; conditions: Homo sapiens
[15] = test system: HCT-116; conditions: Homo sapiens
[16] = test system: MDA-MB-231/ATCC; conditions: Homo sapiens
[17] = test system: SF-295; conditions: Homo sapiens
[18] = test system: HL-60(TB); conditions: Homo sapiens
[19] = test system: OVCAR-3; conditions: Homo sapiens
[20] = test system: CAKI-1; conditions: Homo sapiens
[21] = test system: A549/ATCC; conditions: Homo sapiens
[22] = test system: K-562; conditions: Homo sapiens
[23] = Renal cancer, single dose 10^−5 M
[24] = SW-620, read-out: GI% (cell growth inhibition percentage)
[25] = RXF 393, read-out: GI% (cell growth inhibition percentage)
[26] = UO-31, read-out: GI% (cell growth inhibition percentage)
[27] = NCI-H23, read-out: GI% (cell growth inhibition percentage)
[28] = TK-10, read-out: GI% (cell growth inhibition percentage)
[29] = MCF7, read-out: GI% (cell growth inhibition percentage)
[30] = COLO 205, read-out: GI% (cell growth inhibition percentage)
[31] = SF-539, read-out: GI% (cell growth inhibition percentage)
[32] = OVCAR-5, read-out: GI% (cell growth inhibition percentage)
[33] = MDA-MB-435, read-out: GI% (cell growth inhibition percentage)
[34] = HCT-116, read-out: GI% (cell growth inhibition percentage)
[35] = MDA-MB-231, read-out: GI% (cell growth inhibition percentage)
[36] = SF-295, read-out: GI% (cell growth inhibition percentage)
[37] = HL-60, read-out: GI% (cell growth inhibition percentage)
[38] = OVCAR-3, read-out: GI% (cell growth inhibition percentage)
[39] = CAKI-1, read-out: GI% (cell growth inhibition percentage)
[40] = A549, read-out: GI% (cell growth inhibition percentage)
[41] = K562, read-out: GI% (cell growth inhibition percentage)

For Cc1c(C(=O)N/N=C2\C(=O)N(C)c3ccccc32)oc2ccccc12 [Compound 7a], the inhibition at 10 µM ([1]; SW-620, Colon cancer, single dose 10^−5 M, read-out: GI% (cell growth inhibition percentage)) was 30.6%, the inhibition at 10 µM ([2]; RXF 393, Renal cancer, single dose 10^−5 M, read-out: GI% (cell growth inhibition percentage)) was < 10% and the inhibition at 10 µM ([3]; UO-31, Renal cancer, single dose 10^−5 M, read-out: GI% (cell growth inhibition percentage)) was < 10%. The inhibition at 10 µM ([4]; T-47D, Breast cancer, single dose 10^−5 M) was 21.8%, the inhibition at 10 µM ([5]; Melanoma, single dose 10^−5 M) was < 10% and the inhibition at 10 µM [6, 23] was < 10%. The inhibition at 10 µM ([7]; NCI-H23, Non-small cell lung cancer, single dose 10^−5 M, read-out: GI% (cell growth inhibition percentage)) was < 10%, the inhibition at 10 µM [8, 23] was < 10% and the inhibition at 10 µM ([9]; TK-10, Renal cancer, single dose 10^−5 M, read-out: GI% (cell growth inhibition percentage)) was < 10%. The inhibition at 10 µM ([10]; MCF7, Breast cancer, single dose 10^−5 M, read-out: GI% (cell growth inhibition percentage)) was 28.2%, the inhibition at 10 µM ([11]; COLO 205, Colon cancer, single dose 10^−5 M, read-out: GI% (cell growth inhibition percentage)) was < 10% and the inhibition at 10 µM ([12]; SF-539, CNS cancer, single dose 10^−5 M, read-out: GI% (cell growth inhibition percentage)) was < 10%. For the same compound, the inhibition at 10 µM ([13]; OVCAR-5, Ovarian cancer, single dose 10^−5 M, read-out: GI% (cell growth inhibition percentage)) was < 10%, the inhibition at 10 µM ([14]; MDA-MB-435, Melanoma, single dose 10^−5 M, read-out: GI% (cell growth inhibition percentage)) was < 10% and the inhibition at 10 µM ([15]; HCT-116, Colon cancer, single dose 10^−5 M, read-out: GI% (cell growth inhibition percentage)) was < 10%. The inhibition at 10 µM ([16]; MDA-MB-231/ATCC, Breast cancer, single dose 10^−5 M, read-out: GI% (cell growth inhibition percentage)) was < 10%, the inhibition at 10 µM ([17]; SF-295, CNS cancer, single dose 10^−5 M, read-out: GI% (cell growth inhibition percentage)) was 11.8% and the inhibition at 10 µM ([18]; HL-60(TB), Leukaemia, single dose 10^−5 M, read-out: GI% (cell growth inhibition percentage)) was < 10%. For the same compound, the inhibition at 10 µM ([19]; OVCAR-3, Ovarian cancer, single dose 10^−5 M, read-out: GI% (cell growth inhibition percentage)) was < 10%, the inhibition at 10 µM ([20]; CAKI-1, Renal cancer, single dose 10^−5 M, read-out: GI% (cell growth inhibition percentage)) was 19.4% and the inhibition at 10 µM ([21]; A549/ATCC, Non-small cell lung cancer, single dose 10^−5 M, read-out: GI% (cell growth inhibition percentage)) was < 10%. For the same compound, the inhibition at 10 µM ([22]; K562, K-562, Leukaemia, single dose 10^−5 M, read-out: GI% (cell growth inhibition percentage)) was < 10%.

CCCN1C(=O)/C(=N\NC(=O)c2oc3ccccc3c2C)c2ccccc21 [Compound 7b] was tested, and the inhibition at 10 µM [1, 24] was < 10%, the inhibition at 10 µM [2, 25] was < 10% and the inhibition at 10 µM [3, 26] was 34.3%. For the same compound, the inhibition at 10 µM [4] was 23.8%, the inhibition at 10 µM [5] was < 10% and the inhibition at 10 µM [6] was 11.6%. The inhibition at 10 µM [7, 27] was 15.1%, the inhibition at 10 µM [8] was < 10% and the inhibition at 10 µM [9, 28] was < 10%. For the same compound, the inhibition at 10 µM [10, 29] was 25%, the inhibition at 10 µM [11, 30] was < 10% and the inhibition at 10 µM [12, 31] was < 10%. For the same compound, the inhibition at 10 µM [13, 32] was < 10%, the inhibition at 10 µM [14, 33] was < 10% and the inhibition at 10 µM [15, 34] was < 10%. For the same compound, the inhibition at 10 µM [16, 35] was 29%, the inhibition at 10 µM [17, 36] was 11.9% and the inhibition at 10 µM [18, 37] was 10.9%. The inhibition at 10 µM [19, 38] was < 10%, the inhibition at 10 µM [20, 39] was 11.3% and the inhibition at 10 µM [21, 40] was < 10%. For the same compound, the inhibition at 10 µM [22, 41] was 11.4%.

Cc1c(C(=O)N/N=C2\C(=O)N(Cc3ccccc3)c3ccccc32)oc2ccccc12 [Compound 7d] was tested, and the inhibition at 10 µM [1, 24] was 11.2%, the inhibition at 10 µM [2, 25] was < 10% and the inhibition at 10 µM [3, 26] was 33.6%. It also gave an inhibition at 10 µM [4] of 33.3%, an inhibition at 10 µM [5] of 13.8% and an inhibition at 10 µM [6] of 13.3%. The inhibition at 10 µM [7, 27] was 13.2%, the inhibition at 10 µM [8] was < 10% and the inhibition at 10 µM [9, 28] was < 10%. For the same compound, the inhibition at 10 µM [10, 29] was 16.7%, the inhibition at 10 µM [11, 30] was < 10% and the inhibition at 10 µM [12, 31] was < 10%. The inhibition at 10 µM [13, 32] was < 10%, the inhibition at 10 µM [14, 33] was < 10% and the inhibition at 10 µM [15, 34] was < 10%. The inhibition at 10 µM [16, 35] was 18.3%, the inhibition at 10 µM [17, 36] was < 10% and the inhibition at 10 µM [18, 37] was < 10%. The inhibition at 10 µM [19, 38] was < 10%, the inhibition at 10 µM [20, 39] was 19% and the inhibition at 10 µM [21, 40] was < 10%. The inhibition at 10 µM [22, 41] was < 10%.

With CCCN1C(=O)/C(=N\NC(=O)c2oc3ccccc3c2C)c2cc(Br)ccc21 [Compound 7g] the inhibition at 10 µM [1, 24] was < 10%, the inhibition at 10 µM [2, 25] was < 10% and the inhibition at 10 µM [3, 26] was 21.9%. The inhibition at 10 µM [4] was < 10%, the inhibition at 10 µM [5] was < 10% and the inhibition at 10 µM [6] was < 10%. The inhibition at 10 µM [7, 27] was < 10%, the inhibition at 10 µM [8] was < 10% and the inhibition at 10 µM [9, 28] was < 10%. For the same compound, the inhibition at 10 µM [10, 29] was 13.2%, the inhibition at 10 µM [11, 30] was < 10% and the inhibition at 10 µM [12, 31] was < 10%. For the same compound, the inhibition at 10 µM [13, 32] was < 10%, the inhibition at 10 µM [14, 33] was < 10% and the inhibition at 10 µM [15, 34] was < 10%. For the same compound, the inhibition at 10 µM [16, 35] was < 10%, the inhibition at 10 µM [17, 36] was < 10% and the inhibition at 10 µM [18, 37] was < 10%. For the same compound, the inhibition at 10 µM [19, 38] was < 10%, the inhibition at 10 µM [20, 39] was 14.1% and the inhibition at 10 µM [21, 40] was < 10%. The inhibition at 10 µM [22, 41] was < 10%.
